Results on three compounds are retold here after ChEMBL document CHEMBL4665906, “Novel Potassium Channel Inhibitors” (ACS Med Chem Lett, 2020).

For this experiment, the target named is Intermediate conductance calcium-activated potassium channel protein 4 (Homo sapiens, UniProt O15554). As to the kind of experiment: Inhibition of Kca3.1 in human erythrocytes. In kind it is cell-based.

Structures are written as SMILES.

Sequence of Intermediate conductance calcium-activated potassium channel protein 4 (O15554 whole entry): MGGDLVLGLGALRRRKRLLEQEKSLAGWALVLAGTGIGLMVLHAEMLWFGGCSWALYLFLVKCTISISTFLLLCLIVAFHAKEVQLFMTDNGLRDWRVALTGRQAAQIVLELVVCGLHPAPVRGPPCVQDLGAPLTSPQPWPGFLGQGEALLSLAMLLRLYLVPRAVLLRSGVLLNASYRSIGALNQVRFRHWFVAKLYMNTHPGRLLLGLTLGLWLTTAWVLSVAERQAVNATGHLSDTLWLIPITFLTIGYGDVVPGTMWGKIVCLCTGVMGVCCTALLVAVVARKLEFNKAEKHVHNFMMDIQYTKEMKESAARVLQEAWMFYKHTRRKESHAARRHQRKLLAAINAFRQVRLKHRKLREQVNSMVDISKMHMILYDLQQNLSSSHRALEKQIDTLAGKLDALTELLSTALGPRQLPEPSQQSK

`COC(=O)N(C[C@H]1CCCN1C)C1(c2ccc(F)c(C(F)(F)F)c2)CC1`: the IC50 worked out at 8.1 nM.

Turning to `COC(=O)N(C[C@@H]1CCCN1)C1(c2ccc(F)c(OC(F)(F)F)c2)CC1`, the IC50 is 8.7 nM.

Consider `COC(=O)N(CC(C)(C)N)C1(c2ccc(F)c(C(F)(F)F)c2)CC1`, for which the IC50 came out at 8.6 nM.
